{"source": "patent US20100113301A1", "about": "“METHOD FOR THE IDENTIFICATION AND/OR THE QUANTIFICATION OF A TARGET COMPOUND OBTAINED FROM A BIOLOGICAL SAMPLE UPON CHIPS” (Eppendorf Array Technologies, priority 1999, published 2010)", "test_system": "Rat Liver Gene Expression", "experiment": "Rat liver gene expression on Rat HepatoChips microarrays, colorimetric silver detection", "details": "liver mRNA of treated rat, 100 mg/kg per day orally for 4 days, raw spot intensity mean, 100 mg/kg/day", "method": "Female Sprague-Dawley CD rats (aged 10-12 weeks) were dosed orally with 100 mg/kg per day of either Sodium Phenobarbitone (PB) or pregnenalone 16-carbonitrile (PCN) (Sigma-Aldrich Co. Poole, Dorset, UK) for 4 days. Control animals received corresponding quantities (5 ml/kg body weight) of the 0.56% (w/v) gum tragacanth vehicle. Animals were killed by decapitation and the livers immediately removed for further mRNA extraction.\nThe arrays also include positive and negative controls for the hybridization process, an internal standard control and 8 housekeeping genes.\nThe Rat HepatoChips is composed of single strand DNA probes attached to the glass by a covalent link. The length of the DNA nucleotide sequences has been optimized. They are the same for all genes and are located near the 3′ end of the transcript. All probes have been designed to be gene specific and have been prepared using rat cDNAs.\nLabeled cDNA was prepared using 2 μg mRNA isolated using the FastTrack 2.0 mRNA isolation Kit (Invitrogen). A synthetic poly (A)+tailed mRNA was spiked to the purified mRNA as internal standard to assist in quantification and estimation of experimental variation introduced during labeling and reading. mRNA was added to 2 μl of oligo dT(12-18) primer (0.5 μg/ul) (Gibco BRL), RNase free water was used to bring the volume to 9 μl, and the mixture was denatured at 70° C. for 10 min and then chilled on ice for 5 min. The reverse transcription was performed by adding the following components to the annealed probe/template on ice: 4 μl of First Strand Buffer (250 mM Tris-HCl pH 8.3, 375 mM KCl, 15 mM MgCl2) (Gibco BRL), 2 ul of DTT 0.1 M (Gibco BRL), 40 units of RNasin ribonuclease inhibitor (Promega), 500 μM dATP (Roche), 500 μM dTTP (Roche), 500 μM dGTP (Roche), 80 μM dCTP (Roche), 80 μM biotin-1′-dCTP (NEN). The reaction mixture was mixed gently by flicking the tube and incubated for 5 min at room temperature. 300 units of SuperScript II RT (RNase H—) (Gibco BRL) was added to the reaction mixture and the reverse transcription was allowed to proceed for 90 min at 42° C. Then an additional 300 units of SuperScript II RT was added and incubation was continued at 42° C. for another 90 min. The reaction was ended by heat inactivation at 70° C. for 15 min. To remove RNA complementary to the cDNA, a treatment with RNase H was performed at 37° C. for 20 min following by a heat denaturation at 95° C. for 3 minutes and cooled on ice before use. No further RT product purification was necessary.\nThe hybridization was performed in a hybridization chamber (Biozym, Landgraaf, The Netherlands) containing the hybridization buffer ‘Hepatobuffer’ and a positive hybridization control (a biotinylated amplicons, at a concentration of 25 nM). Hybridization was carried out overnight at 60° C. The arrays were then washed four times for 2 min with washing buffer at room temperature.\nThe presence of biotinylated hybrids on the microarray was detected using a antibody anti-biotin conjugate coupled colloidal gold. The arrays were then incubated with a 1:100 dilution of conjugate solution in a blocking buffer (100 mM maleic buffer pH 7.5, 150 mM NaCl and 0.1% milk powder) for […] at room temperature. The array were then washed five times for 2 min at room temperature, rinsed briefly with deionized water then dried. Then array is incubated at room temperature for 5 min in the Silver Blue Solution (AAT, Namur, Belgium), rinsed in water, dried 5′ at 37° C. and read with the scanner described herein.\nThe scanner used had the following scanning parameters:\nBit depth: 16 bits grayscale (65536 grey levels)\nno additional correction of the image (i.e. standard values for contrast, brightness, . . . )\nScanning software: Silverfast from LaserSoft\nQuantification Software: Imagene 4.2 from Biodiscovery", "note": "Values joined by “and” are separate entries in the source; they are usually repeats but may differ in a detail not shown here. Equal values may be shown once.", "data": [{"smiles": "CCC1(c2ccccc2)C(=O)NC(=O)NC1=O", "note": "[phenobarbital, Sodium Phenobarbitone]", "values": [{"measurement": "Test Signal, ACO", "setting": "gene ACO", "result": "51686 16-bits grayscale and 51619 16-bits grayscale"}, {"measurement": "Test Signal, Albumin", "setting": "gene Albumin", "result": "63921 16-bits grayscale and 63641 16-bits grayscale"}, {"measurement": "Test Signal, ApoJ", "setting": "gene ApoJ", "result": "52452 16-bits grayscale and 55866 16-bits grayscale"}, {"measurement": "Test Signal, B-actin", "setting": "gene B-actin", "result": "52992 16-bits grayscale and 55039 16-bits grayscale"}, {"measurement": "Test Signal, Bax", "setting": "gene Bax", "result": "24767 16-bits grayscale and 27814 16-bits grayscale"}, {"measurement": "Test Signal, Bcl-2", "setting": "gene Bcl-2", "result": "21220 16-bits grayscale and 21509 16-bits grayscale"}, {"measurement": "Test Signal, C-jun", "setting": "gene C-jun", "result": "22382 16-bits grayscale and 23523 16-bits grayscale"}, {"measurement": "Test Signal, C-myc", "setting": "gene C-myc", "result": "27229 16-bits grayscale and 28315 16-bits grayscale"}, {"measurement": "Test Signal, C/EBP", "setting": "gene C/EBP", "result": "31394 16-bits grayscale and 31754 16-bits grayscale"}, {"measurement": "Test Signal, Cox-2", "setting": "gene Cox-2", "result": "20187 16-bits grayscale and 20484 16-bits grayscale"}, {"measurement": "Test Signal, Cyclin D1", "setting": "gene Cyclin D1", "result": "25036 16-bits grayscale and 25587 16-bits grayscale"}, {"measurement": "Test Signal, Cyp 1a1", "setting": "gene Cyp 1a1", "result": "20728 16-bits grayscale and 20972 16-bits grayscale"}, {"measurement": "Test Signal, Cyp 1b1", "setting": "gene Cyp 1b1", "result": "22231 16-bits grayscale and 21071 16-bits grayscale"}, {"measurement": "Test Signal, Cyp 2b", "setting": "gene Cyp 2b", "result": "62971 16-bits grayscale and 62867 16-bits grayscale"}, {"measurement": "Test Signal, Cyp 3a", "setting": "gene Cyp 3a", "result": "63098 16-bits grayscale and 63114 16-bits grayscale"}, {"measurement": "Test Signal, Cyp 4a1", "setting": "gene Cyp 4a1", "result": "35089 16-bits grayscale and 35673 16-bits grayscale"}, {"measurement": "Test Signal, Cyt oxidase 1", "setting": "gene Cyt oxidase 1", "result": "63947 16-bits grayscale and 62432 16-bits grayscale"}, {"measurement": "Test Signal, Elk", "setting": "gene Elk", "result": "20632 16-bits grayscale and 20630 16-bits grayscale"}, {"measurement": "Test Signal, Enoyl CoA", "setting": "gene Enoyl CoA", "result": "60758 16-bits grayscale and 60738 16-bits grayscale"}, {"measurement": "Test Signal, Erk-1", "setting": "gene Erk-1", "result": "22998 16-bits grayscale and 23360 16-bits grayscale"}, {"measurement": "Test Signal, Ferritin", "setting": "gene Ferritin", "result": "60237 16-bits grayscale and 59913 16-bits grayscale"}, {"measurement": "Test Signal, Fibronectin", "setting": "gene Fibronectin", "result": "47542 16-bits grayscale and 50240 16-bits grayscale"}, {"measurement": "Test Signal, GADD45", "setting": "gene GADD45", "result": "22359 16-bits grayscale and 22287 16-bits grayscale"}, {"measurement": "Test Signal, GADD153", "setting": "gene GADD153", "result": "23334 16-bits grayscale and 23216 16-bits grayscale"}, {"measurement": "Test Signal, GAPDH", "setting": "gene GAPDH", "result": "58466 16-bits grayscale and 60437 16-bits grayscale"}, {"measurement": "Test Signal, GSH reductase", "setting": "gene GSH reductase", "result": "24281 16-bits grayscale and 23937 16-bits grayscale"}, {"measurement": "Test Signal, Glutathione Theta 5", "setting": "gene Glutathione Theta 5", "result": "30062 16-bits grayscale and 32113 16-bits grayscale"}, {"measurement": "Test Signal, Glutatione Ya", "setting": "gene Glutatione Ya", "result": "63398 16-bits grayscale and 63872 16-bits grayscale"}, {"measurement": "Test Signal, HGF", "setting": "gene HGF", "result": "21195 16-bits grayscale and 20996 16-bits grayscale"}, {"measurement": "Test Signal, HGPT", "setting": "gene HGPT", "result": "26564 16-bits grayscale and 27506 16-bits grayscale"}, {"measurement": "Test Signal, HMG", "setting": "gene HMG", "result": "34978 16-bits grayscale and 36070 16-bits grayscale"}, {"measurement": "Test Signal, Histone Dacetyl", "setting": "gene Histone Dacetyl", "result": "21846 16-bits grayscale and 21766 16-bits grayscale"}, {"measurement": "Test Signal, Hox2", "setting": "gene Hox2", "result": "30000 16-bits grayscale and 29975 16-bits grayscale"}, {"measurement": "Test Signal, Hsp 70", "setting": "gene Hsp 70", "result": "23738 16-bits grayscale and 22628 16-bits grayscale"}, {"measurement": "Test Signal, II6", "setting": "gene II6", "result": "20776 16-bits grayscale and 20646 16-bits grayscale"}, {"measurement": "Test Signal, IKB", "setting": "gene IKB", "result": "21781 16-bits grayscale and 21227 16-bits grayscale"}, {"measurement": "Test Signal, JNK", "setting": "gene JNK", "result": "20743 16-bits grayscale and 20935 16-bits grayscale"}, {"measurement": "Test Signal, MDR1", "setting": "gene MDR1", "result": "27172 16-bits grayscale and 26841 16-bits grayscale"}, {"measurement": "Test Signal, Macroglobulin", "setting": "gene Macroglobulin", "result": "32619 16-bits grayscale and 33165 16-bits grayscale"}, {"measurement": "Test Signal, Mgmt", "setting": "gene Mgmt", "result": "23373 16-bits grayscale and 23981 16-bits grayscale"}, {"measurement": "Test Signal, MnSOD", "setting": "gene MnSOD", "result": "26695 16-bits grayscale and 26251 16-bits grayscale"}, {"measurement": "Test Signal, Myr", "setting": "gene Myr", "result": "22905 16-bits grayscale and 22579 16-bits grayscale"}, {"measurement": "Test Signal, NFKB", "setting": "gene NFKB", "result": "21439 16-bits grayscale and 21343 16-bits grayscale"}, {"measurement": "Test Signal, ODC", "setting": "gene ODC", "result": "23381 16-bits grayscale and 23303 16-bits grayscale"}, {"measurement": "Test Signal, P38", "setting": "gene P38", "result": "26227 16-bits grayscale and 28841 16-bits grayscale"}, {"measurement": "Test Signal, P53", "setting": "gene P53", "result": "25848 16-bits grayscale and 25221 16-bits grayscale"}, {"measurement": "Test Signal, PCNA", "setting": "gene PCNA", "result": "23374 16-bits grayscale and 23609 16-bits grayscale"}, {"measurement": "Test Signal, PPAR", "setting": "gene PPAR", "result": "20767 16-bits grayscale and 20704 16-bits grayscale"}, {"measurement": "Test Signal, Phospho A2", "setting": "gene Phospho A2", "result": "21966 16-bits grayscale and 21421 16-bits grayscale"}, {"measurement": "Test Signal, S29", "setting": "gene S29", "result": "50843 16-bits grayscale and 53202 16-bits grayscale"}, {"measurement": "Test Signal, Smp30", "setting": "gene Smp30", "result": "32696 16-bits grayscale and 31894 16-bits grayscale"}, {"measurement": "Test Signal, TGFbRII", "setting": "gene TGFbRII", "result": "22149 16-bits grayscale and 23021 16-bits grayscale"}, {"measurement": "Test Signal, TNF", "setting": "gene TNF", "result": "21082 16-bits grayscale and 20767 16-bits grayscale"}, {"measurement": "Test Signal, Telomerase", "setting": "gene Telomerase", "result": "23256 16-bits grayscale and 22745 16-bits grayscale"}, {"measurement": "Test Signal, Transferrin", "setting": "gene Transferrin", "result": "61525 16-bits grayscale and 61527 16-bits grayscale"}, {"measurement": "Test Signal, Tubulin", "setting": "gene Tubulin", "result": "36262 16-bits grayscale and 36054 16-bits grayscale"}, {"measurement": "Test Signal, UDPGT1a6", "setting": "gene UDPGT1a6", "result": "22769 16-bits grayscale and 22766 16-bits grayscale"}, {"measurement": "Test Signal, UDPGT1a", "setting": "gene UDPGT1a", "result": "52205 16-bits grayscale and 50981 16-bits grayscale"}, {"measurement": "Test Signal, Ubiquitin", "setting": "gene Ubiquitin", "result": "59171 16-bits grayscale and 59613 16-bits grayscale"}]}]}
